The record followed here is patent US8987239B2, “19-nor-steroid derivatives with a 15α,16α-methylene group and a saturated 17,17-spirolactone ring, use thereof, and medicaments containing said derivatives” (Bayer Intellectual Property GmbH, priority 2007, dated 2015).

The target in test [1] is T1, progesterone receptor (Homo sapiens (Human), UniProt P06401). In words: Progestational action by transactivation test (CHO K1 reporter cells, luciferase). The format is cell-based. The note with it: for Emax: read-out: In vitro Transactivation Progesterone receptor Agonisten Efficacy. How it is done:
4. Determination of Progestational Action by Means of Transactivation Tests:
The test compounds were added eight hours later, and the cells were incubated with the compounds for 16 hours. The tests were carried out in triplicate. At the end of incubation the medium containing the effector was removed and replaced with lysis buffer. After luciferase assay substrate (Promega, #E1501) had been added, the 96-well plates were then put in a microplate luminometer (Pherastar, BMG labtech), and the luminescence was measured. The IC50 values were evaluated using software for calculating dose-effect relations.
Target sequence in this assay (P06401 679-913, species assumed): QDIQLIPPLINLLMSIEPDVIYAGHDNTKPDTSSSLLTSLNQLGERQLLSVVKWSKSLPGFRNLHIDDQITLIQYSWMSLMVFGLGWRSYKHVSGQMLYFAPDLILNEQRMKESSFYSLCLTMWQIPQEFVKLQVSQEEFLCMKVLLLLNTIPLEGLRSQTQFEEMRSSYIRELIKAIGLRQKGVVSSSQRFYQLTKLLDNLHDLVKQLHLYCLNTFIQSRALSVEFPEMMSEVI

Test [2] has as its target mineralocorticoid receptor (Homo sapiens (Human), UniProt P08235). In words: Mineralocorticoid receptor binding test (displacement of 3H-aldosterone). The note with it: cytosol from MR-expressing insect cells (Hi5), reference 3H-aldosterone. The text has this: 2. Mineralocorticoid Receptor Binding Test:
Test [3] concerns the target T1, progesterone receptor. In words: Progesterone receptor binding test (displacement of 3H-progesterone). As to conditions: for Receptor binding Progesterone receptor Competition factor: CF relative to progesterone (=1), CF <1 means higher affinity; for CF PR/CF MR: ratio of competition factors, progesterone receptor to mineralocorticoid receptor; for IC50: read-out: Receptor binding Progesterone receptor IC50, cytosol from PR-expressing insect cells (Hi5), 3H-progesterone.
Target sequence in this assay (P06401 whole entry, species assumed): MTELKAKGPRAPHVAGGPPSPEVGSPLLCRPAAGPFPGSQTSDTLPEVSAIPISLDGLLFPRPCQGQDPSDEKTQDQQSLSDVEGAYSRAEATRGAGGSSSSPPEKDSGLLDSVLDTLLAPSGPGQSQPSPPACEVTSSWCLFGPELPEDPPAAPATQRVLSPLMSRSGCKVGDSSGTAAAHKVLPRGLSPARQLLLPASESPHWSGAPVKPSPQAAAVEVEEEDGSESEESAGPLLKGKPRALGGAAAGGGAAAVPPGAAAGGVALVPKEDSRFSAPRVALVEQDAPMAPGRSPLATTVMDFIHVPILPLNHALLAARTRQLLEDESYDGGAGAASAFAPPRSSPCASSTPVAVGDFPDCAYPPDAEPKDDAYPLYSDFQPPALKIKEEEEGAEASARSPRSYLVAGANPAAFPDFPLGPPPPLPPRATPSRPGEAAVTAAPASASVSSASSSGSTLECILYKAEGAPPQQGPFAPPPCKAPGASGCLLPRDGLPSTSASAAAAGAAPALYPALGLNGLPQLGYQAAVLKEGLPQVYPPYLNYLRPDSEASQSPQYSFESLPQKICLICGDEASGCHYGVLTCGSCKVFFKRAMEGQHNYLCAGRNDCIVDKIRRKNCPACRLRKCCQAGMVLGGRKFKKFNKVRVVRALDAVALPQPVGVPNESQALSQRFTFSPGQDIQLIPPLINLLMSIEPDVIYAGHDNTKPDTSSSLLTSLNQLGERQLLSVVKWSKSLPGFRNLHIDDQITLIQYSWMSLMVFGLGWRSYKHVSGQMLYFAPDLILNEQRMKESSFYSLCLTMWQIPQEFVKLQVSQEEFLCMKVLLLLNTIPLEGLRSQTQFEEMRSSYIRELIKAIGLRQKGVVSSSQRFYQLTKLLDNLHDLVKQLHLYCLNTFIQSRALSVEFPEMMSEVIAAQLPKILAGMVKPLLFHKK
Experimental: Progesterone Receptor Binding Test:
Using cytosol from progesterone receptor-expressing insect cells (Hi5), competitive binding to the progesterone receptor was determined from the ability to displace ^3H-progesterone as reference substance from the receptor.

Another test concerns the target androgen receptor (Homo sapiens (Human), UniProt P10275). In words: Androgen receptor binding test (displacement of 3H-testosterone). As to conditions: cytosol from AR-expressing insect cells (Hi5); for Receptor binding Androgen receptor Competition factor: reference 3H-testosterone; for IC50: read-out: Receptor binding Androgen receptor IC50, 3H-testosterone.
Where [4] appears, read: CHO K1 PR-LBD/Gal4 luciferase reporter cells, 16 hours incubation, read-out: In vitro Transactivation Progesterone receptor Agonisten EC50.
The mark [5] stands for this setting: CHO K1 PR-LBD/Gal4 luciferase reporter cells, 16 hours incubation.

Structures are written as SMILES. Like-named read-outs stand apart in the source and are kept apart here.

Chain of mineralocorticoid receptor (P08235 whole entry, species assumed): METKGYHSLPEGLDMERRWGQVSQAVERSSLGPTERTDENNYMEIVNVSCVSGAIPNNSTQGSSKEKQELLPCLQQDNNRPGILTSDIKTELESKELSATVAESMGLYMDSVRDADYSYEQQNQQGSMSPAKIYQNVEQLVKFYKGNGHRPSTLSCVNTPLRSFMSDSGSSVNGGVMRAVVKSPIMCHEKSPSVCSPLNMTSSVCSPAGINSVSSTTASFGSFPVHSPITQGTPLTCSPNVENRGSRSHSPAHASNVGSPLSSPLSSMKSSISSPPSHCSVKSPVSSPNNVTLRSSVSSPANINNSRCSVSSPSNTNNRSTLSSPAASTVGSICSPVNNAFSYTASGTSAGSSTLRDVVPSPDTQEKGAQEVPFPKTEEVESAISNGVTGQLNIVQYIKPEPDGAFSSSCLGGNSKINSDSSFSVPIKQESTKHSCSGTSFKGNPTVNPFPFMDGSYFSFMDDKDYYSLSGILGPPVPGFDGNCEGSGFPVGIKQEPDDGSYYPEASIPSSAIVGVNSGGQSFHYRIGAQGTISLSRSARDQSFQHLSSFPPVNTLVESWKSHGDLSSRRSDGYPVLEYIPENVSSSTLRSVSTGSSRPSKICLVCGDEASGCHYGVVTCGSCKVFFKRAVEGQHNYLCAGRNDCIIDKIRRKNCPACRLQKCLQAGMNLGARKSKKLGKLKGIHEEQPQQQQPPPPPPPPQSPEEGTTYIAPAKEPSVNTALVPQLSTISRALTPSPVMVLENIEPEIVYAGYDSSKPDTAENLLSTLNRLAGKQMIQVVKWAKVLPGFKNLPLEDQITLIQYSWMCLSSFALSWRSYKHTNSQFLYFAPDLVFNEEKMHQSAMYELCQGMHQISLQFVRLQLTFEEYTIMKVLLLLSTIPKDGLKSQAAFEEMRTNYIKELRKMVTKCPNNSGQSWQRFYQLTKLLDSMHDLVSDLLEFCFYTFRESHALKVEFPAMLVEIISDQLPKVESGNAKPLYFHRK
Chain of androgen receptor (P10275 whole entry, species assumed, the tested form may be a part): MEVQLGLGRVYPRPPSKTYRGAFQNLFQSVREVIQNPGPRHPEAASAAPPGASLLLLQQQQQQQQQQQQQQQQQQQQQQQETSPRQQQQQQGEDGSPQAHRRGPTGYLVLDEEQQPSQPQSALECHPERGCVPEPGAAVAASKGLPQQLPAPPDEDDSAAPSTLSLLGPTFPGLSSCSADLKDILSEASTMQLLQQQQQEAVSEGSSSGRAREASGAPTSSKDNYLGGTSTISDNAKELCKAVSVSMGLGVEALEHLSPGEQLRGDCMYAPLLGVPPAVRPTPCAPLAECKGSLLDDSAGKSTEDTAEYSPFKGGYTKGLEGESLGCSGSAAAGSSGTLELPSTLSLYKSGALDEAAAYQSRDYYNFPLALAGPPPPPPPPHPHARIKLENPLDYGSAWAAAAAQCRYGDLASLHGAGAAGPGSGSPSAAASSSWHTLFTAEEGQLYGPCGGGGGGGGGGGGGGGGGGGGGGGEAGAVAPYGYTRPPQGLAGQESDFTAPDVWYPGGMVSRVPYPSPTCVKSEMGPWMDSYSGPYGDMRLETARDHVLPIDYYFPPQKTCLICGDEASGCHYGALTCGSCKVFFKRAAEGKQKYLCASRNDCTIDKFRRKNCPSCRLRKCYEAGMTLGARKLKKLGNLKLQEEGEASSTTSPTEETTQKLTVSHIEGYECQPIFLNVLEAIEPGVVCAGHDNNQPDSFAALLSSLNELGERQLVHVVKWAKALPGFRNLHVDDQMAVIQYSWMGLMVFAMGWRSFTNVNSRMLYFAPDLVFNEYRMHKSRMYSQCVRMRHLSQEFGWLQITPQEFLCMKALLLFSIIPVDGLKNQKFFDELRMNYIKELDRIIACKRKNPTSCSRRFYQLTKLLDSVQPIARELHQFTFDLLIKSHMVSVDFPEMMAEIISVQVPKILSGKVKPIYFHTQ
Experimental for androgen receptor: Androgen Receptor Binding Test:
The test was carried out as in 1, with the following modifications: cytosol from androgen receptor-expressing insect cells (Hi5) was used, and the reference substance was ^3H-testosterone.

For the compound `C[C@]12CCC3C4CCC(=O)C=C4[C@@H]4C[C@@H]4C3C1C1CC1[C@@]21CCC(=O)O1` (stereo in doubt) [compound 9], on progesterone receptor [1] (setting [4]), the EC50 came to 1 nM. On progesterone receptor [1] (CHO-K1, 16 h), the Emax was determined as 77.4%.

Regarding `C[C@]12CCC(=O)C=C1[C@@H]1C[C@@H]1[C@H]1[C@@H]3[C@@H]4C[C@@H]4[C@@]4(CCC(=O)O4)[C@@]3(C)CC[C@@H]12` [A, 6β,7β-15β,16β-dimethylene-3-oxo-17-pregn-4-ene-21,17β-carbolactone, reference compound], the “Receptor binding Mineralocorticoid receptor Competition factor” value in test [2] is listed as 0.5. Moreover, the Emax at progesterone receptor [1] (setting [5]) turned out to be 72.2%. Moreover, the “Receptor binding Progesterone receptor Competition factor” value on progesterone receptor [3] is listed as 2.7.

Regarding `C[C@]12CCC3C4CCC(=O)C=C4CCC3C1C1CC1[C@@]21CCC(=O)O1` (stereo partly drawn) [Example 1, 17β-Hydroxy-15α,16α-methylene-19-nor-17α-pregna-4-en-3-one-21-carboxylic acid γ-lactone], in test [2], the “Receptor binding Mineralocorticoid receptor Competition factor” value amounted to 1.8. Besides, on progesterone receptor [1] (CHO-K1, 16 h), the Emax came to 55.9%. In addition, on androgen receptor, the “Receptor binding Androgen receptor Competition factor” value was found to be 110.0 and the IC50 worked out at 6 nM.

`CC1CC2=CC(=O)CCC2C2CC[C@@]3(C)C(C4CC4[C@@]34CCC(=O)O4)C12` (stereo partly drawn) [Example 3, 17β-Hydroxy-7α-methyl-15α,16α-methylene-19-nor-17α-pregna-4-en-3-one-21-carboxylicacid γ-lactone]: the “Receptor binding Mineralocorticoid receptor Competition factor” value in test [2] stood at 1.3. The Emax at progesterone receptor [1] (CHO-K1, 16 h) is 87%. In addition, at androgen receptor, the “Receptor binding Androgen receptor Competition factor” value is 2.8 and the IC50 was determined as 61 nM.

In the case of `CCC1CC2=CC(=O)CCC2C2CC[C@@]3(C)C(C4CC4[C@@]34CCC(=O)O4)C12` (stereo partly drawn) [Example 4, 17β-Hydroxy-7α-ethyl-15α,16α-methylene-19-nor-17α-pregna-4-en-3-one-21-carboxylic acid γ-lactone], the “Receptor binding Mineralocorticoid receptor Competition factor” value in test [2] worked out at 1.2. On progesterone receptor [1], this compound returned an EC50 of 0.7 nM. Further, at progesterone receptor [1] (CHO-K1, 16 h), the Emax was found to be 56.7%. On androgen receptor, the “Receptor binding Androgen receptor Competition factor” value is listed as 5.6 and the half-inhibitory concentration (IC50) was found to be 74 nM. Also, at progesterone receptor [3], the “Receptor binding Progesterone receptor Competition factor” value was 1.74, the “CF PR/CF MR” value is on record as 1.45 and the concentration for half-maximal inhibition (IC50) was found to be 33 nM.

Take `C=CC1CC2=CC(=O)CCC2C2CC[C@@]3(C)C(C4CC4[C@@]34CCC(=O)O4)C12` (stereo partly drawn) [Example 5, 17β-Hydroxy-7α-vinyl-15α,16α-methylene-19-nor-17α-pregna-4-en-3-one-21-carboxylic acid γ-lactone]: the “Receptor binding Mineralocorticoid receptor Competition factor” value in test [2] came out at 1.4. Further, at progesterone receptor [1], the EC50 was 3.4 nM. For the same compound, on progesterone receptor [1] (CHO-K1, 16 h), the Emax is 66.1%. Besides, on androgen receptor, the “Receptor binding Androgen receptor Competition factor” value amounted to 3.0 and the IC50 was 55 nM. Besides, at progesterone receptor [3], the “Receptor binding Progesterone receptor Competition factor” value was 1.16, the “CF PR/CF MR” value is recorded as 0.83 and the IC50 was determined as 15 nM.

Turning to `C[C@]12CCC3C4CCC(=O)C=C4CC(C4CC4)C3C1C1CC1[C@@]21CCC(=O)O1` (stereo partly drawn) [Example 6, 17β-Hydroxy-7α-cyclopropyl-15α,16α-methylene-19-nor-17α-pregna-4-en-3-one-21-carboxylic acid γ-lactone], in test [2], the “Receptor binding Mineralocorticoid receptor Competition factor” value stood at 1.6. The compound also yielded an EC50 at progesterone receptor [1] of 1 nM. Also, on progesterone receptor [1] (CHO-K1, 16 h), the Emax is 48.6%. Besides, on androgen receptor, the “Receptor binding Androgen receptor Competition factor” value was found to be 6.3 and the IC50 was 78 nM. At progesterone receptor [3], the “Receptor binding Progesterone receptor Competition factor” value stood at 2.65, the “CF PR/CF MR” value is 1.66 and the IC50 stood at 51 nM.

Take `C[C@]12CCC3C4CCC(=O)C=C4[C@H](CO)CC3C1C1CC1[C@@]21CCC(=O)O1` (stereo partly drawn) [Example 7, 17β-Hydroxy-6β-hydroxymethyl-15α,16α-methylene-19-nor-17α-pregna-4-en-3-one-21-carboxylic acid γ-lactone]: in test [2], the “Receptor binding Mineralocorticoid receptor Competition factor” value is recorded as 2.1. Also, the 50% effective concentration (EC50) at progesterone receptor [1] (setting [4]) turned out to be 910 nM. The Emax on progesterone receptor [1] (setting [5]) came to 22.8%. Further, on androgen receptor, the “Receptor binding Androgen receptor Competition factor” value is listed as 1000.0 and the half-maximal inhibitory concentration (IC50) stood at 10000 nM. For the same compound, on progesterone receptor [3], the “Receptor binding Progesterone receptor Competition factor” value amounted to 49.90, the “CF PR/CF MR” value is 23.76 and the IC50 stood at 1100 nM.

Consider `C[C@]12CCC3C4CCC(=O)C=C4C4(CC4)CC3C1C1CC1[C@@]21CCC(=O)O1` (stereo partly drawn) [Example 8, 6,6-(1,2-Ethanediyl)-17β-hydroxy-15α,16α-methylene-19-nor-17α-pregna-4-en-3-one-21-carboxylic acid γ-lactone], for which, in test [2], the “Receptor binding Mineralocorticoid receptor Competition factor” value was 0.9. This compound also had a concentration giving a half-maximal response (EC50) on progesterone receptor [1] of 0.1 nM. For the same compound, the Emax on progesterone receptor [1] (CHO-K1, 16 h) worked out at 69.7%. Moreover, at androgen receptor, the “Receptor binding Androgen receptor Competition factor” value amounted to 1.4 and the IC50 amounted to 26 nM. Further, at progesterone receptor [3], the “Receptor binding Progesterone receptor Competition factor” value stood at 0.71, the “CF PR/CF MR” value turned out to be 0.79 and the half-maximal inhibitory concentration (IC50) worked out at 8.9 nM.

Consider `C[C@]12CCC3C4CCC(=O)C=C4C4CC4C3C1C1CC1[C@@]21CCC(=O)O1` (stereo partly drawn) [Example 9 (B), 17β-hydroxy-6α,7α-15α,16α-bismethylene-19-nor-17α-pregna-4-en-3-one-21-carboxylic acid γ-lactone], for which, at progesterone receptor [1] (setting [5]), the Emax came out at 107%.
